Results published in patent US20100298141A1, “SUBSTITUTED PYRIDINE N-OXIDE HERBICIDES” (E. I. DU PONT DE NEMOURS AND COMPANY, priority 2007, published 2010).

Legend:
[1] = test system: barnyardgrass; experiment: Test A pre-/postemergence greenhouse test; assay type: in vivo, Echinochloa crus-galli; settings: for Plant response rating, Barnyardgrass: 0 to 100 scale where 0 is no effect and 100 is complete control; for Barnyardgrass plant response rating: 0 to 100 scale
Method in brief: (§1)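 Herbicidal effect is a visual injury score given about ten days post-treatment by comparison with untreated controls. Preemergence plots received a directed spray onto sown loam–sand soil; postemergence plants, at the one- to two-leaf stage and 2–10 cm tall, were sprayed at the same time.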

[2] = test system: crabgrass; experiment: Test C pre-/postemergence test; assay type: in vivo, Digitaria sanguinalis
Description: (§2) Seeds of plant species selected from blackgrass (Alopecurus myosuroides), downy brome (Bromus tectorum), green foxtail (Setaria viridis), Italian ryegrass (Lolium multiflorum), wheat (Triticum aestivum), wild oat (Avena fatua), catchweed bedstraw (Galium aparine), Russian thistle (Salsola kali), […] (Cynodon dactylon), Surinam grass (Brachiaria decumbens), cocklebur (Xanthium strumarium), corn (Zea mays), crabgrass (Digitaria sanguinalis), woolly cupgrass (Eriochloa villosa), giant foxtail (Setaria faberii), Goosegrass (Eleusin indica), johnsongrass (Sorghum halepense), kochia (Kochia scoparia), lambsquarters (Chenopodium album), morningglory (Ipomoea coccinea), eastern black nightshade (Solanum ptycanthum), yellow nutsedge (Cyperus esculentus), pigweed (Amaranthus retroflexus), common ragweed (Ambrosia elation), soybean (Glycine max), common (oilseed) sunflower (Helianthus annuus), and velvetleaf (Abutilon theophrasti) were planted and treated preemergence with test chemicals formulated in a non-phytotoxic solvent mixture which included a surfactant. At the same time, plants selected from these crop and weed species and also winter barley (Hordeum vulgare), canarygrass (Phalaris minor), and chickweed (Stellaria media) were treated with postemergence applications of some of the test chemicals formulated in the same manner. Plants ranged in height from 2 to 18 cm (1- to 4-leaf stage) for postemergence treatments. […] At time of treatment, test pots were flooded to 3 cm above the soil surface, treated by application of test compounds directly to the paddy water, and then maintained at that water depth for the duration of the test. […] A dash (-) response means no test result.

[3] = test system: redroot pigweed; experiment: Test A pre-/postemergence greenhouse test; assay type: in vivo, Amaranthus retroflexus; settings: for Plant response rating, Pigweed: 0 to 100 scale where 0 is no effect and 100 is complete control; for Pigweed plant response rating: 0 to 100 scale
Method in brief: as §1

[4] = test system: bermudagrass; experiment: Test C pre-/postemergence test; assay type: in vivo, Cynodon dactylon
Description: as §2

[5] = test system: wheat; experiment: Test C pre-/postemergence test; assay type: in vivo, Triticum aestivum
Description: as §2

[6] = test system: rice; experiment: Test C flooded paddy test; assay type: in vivo, Oryza sativa; settings: Flood
Method in brief: (§3)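 Greenhouse pots flooded to 3 cm above soil at time of treatment received compound via the water, which stayed at that level.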

[7] = test system: Goosegrass; experiment: Test C pre-/postemergence test; assay type: in vivo, Eleusin indica
Description: as §2

[8] = test system: common (oilseed) sunflower; experiment: Test C pre-/postemergence test; assay type: in vivo, Helianthus annuus; settings: for Plant response rating, Sunflower: 31 g ai/ha, scale 0 to 100 (0 no effect, 100 complete control)
Description: as §2

[9] = test system: wheat; experiment: Test A pre-/postemergence greenhouse test; assay type: in vivo, Triticum aestivum; settings: for Plant response rating, Wheat: 0 to 100 scale where 0 is no effect and 100 is complete control; for Wheat plant response rating: 0 to 100 scale
Method in brief: as §1

[10] = test system: lambsquarters; experiment: Test C pre-/postemergence test; assay type: in vivo, Chenopodium album; settings: Postemergence; for Plant response rating, Lambsquarters: scale 0 to 100, 0 no effect, 100 complete control
Description: as §2

[11] = test system: giant foxtail; experiment: Test A pre-/postemergence greenhouse test; assay type: in vivo, Setaria faberi; settings: for Plant response rating, Foxtail, Giant: 0 to 100 scale where 0 is no effect and 100 is complete control; for Foxtail, Giant plant response rating: 0 to 100 scale
Method in brief: as §1

[12] = test system: corn; experiment: Test A pre-/postemergence greenhouse test; assay type: in vivo, Zea mays; settings: for Plant response rating, Corn: 0 to 100 scale where 0 is no effect and 100 is complete control; for Corn plant response rating: 0 to 100 scale
Method in brief: as §1

[13] = test system: morningglory; experiment: Test A pre-/postemergence greenhouse test; assay type: in vivo, Ipomoea spp.; settings: for Plant response rating, Morningglory: 0 to 100 scale where 0 is no effect and 100 is complete control; for Morningglory plant response rating: 0 to 100 scale
Method in brief: as §1

[14] = test system: umbrella sedge; experiment: Test C flooded paddy test; assay type: in vivo, Cyperus difformis; settings: Flood
Method in brief: as §3

[15] = test system: pigweed; experiment: Test C pre-/postemergence test; assay type: in vivo, Amaranthus retroflexus
Description: as §2

[16] = test system: Surinam grass; experiment: Test C pre-/postemergence test; assay type: in vivo, Brachiaria decumbens
Description: as §2

[17] = Postemergence, 500 g ai/ha, 0 is no effect, 100 is complete control
[18] = Preemergence, 125 g ai/ha, 0 no effect, 100 complete control
[19] = 62 g ai/ha, Preemergence, scale 0 to 100
[20] = 125 g ai/ha, preemergence, scale 0 (no effect) to 100 (complete control)
[21] = Postemergence, 62 g ai/ha, scale 0 to 100, 0 no effect, 100 complete control
[22] = Postemergence, 125 g ai/ha, scale 0 to 100, 0 no effect, 100 complete control
[23] = Postemergence, 250 g ai/ha, scale 0 to 100, 0 no effect, 100 complete control
[24] = Preemergence, 31 g ai/ha, scale 0 to 100 (0 no effect, 100 complete control)
[25] = preemergence, 250 g ai/ha, scale 0 (no effect) to 100 (complete control)
[26] = 62 g ai/ha, Preemergence, scale 0 to 100 (0 no effect, 100 complete control)
[27] = 62 g ai/ha, scale 0 to 100 (0 no effect, 100 complete control)
[28] = 250 g ai/ha, scale 0 to 100, 0 no effect, 100 complete control, 13 to 15 days

CCn1nc(C(F)(F)F)c(C[S+]([O-])c2cccc[n+]2[O-])c1OCC(F)(F)F (racemic) [Compound 65]
5: Plant response rating, Pigweed [15, 23]
80: Barnyardgrass plant response rating [1, 18] | Plant response rating, Pigweed ([3]; Postemergence, 125 g ai/ha) | Wheat plant response rating [5, 19] | Wheat plant response rating [9, 18] | Corn plant response rating [12, 17] | Plant response rating, Corn ([12]; Preemergence, 500 g ai/ha) | Plant response rating, Surinam Grass [16, 24]
100: Plant response rating, Barnyardgrass ([1]; Preemergence, 500 g ai/ha) | Crabgrass, Large plant response rating [2, 19] | Crabgrass, Large plant response rating [2, 20] | Crabgrass, Large plant response rating [2, 25] | Pigweed plant response rating [3, 18] | Plant response rating, Pigweed ([3]; Preemergence, 500 g ai/ha) | Bermudagrass plant response rating [4, 26] | Bermudagrass plant response rating [4, 20] | Plant response rating, Bermudagrass [4, 24] | Bermudagrass plant response rating [4, 25] | Wheat plant response rating [5, 20] | Wheat plant response rating [5, 25] | Goosegrass plant response rating [7, 19] | Goosegrass plant response rating [7, 20] | Plant response rating, Goosegrass [7, 24] | Goosegrass plant response rating [7, 25] | Sunflower plant response rating [8, 20] | Plant response rating, Wheat ([9]; Preemergence, 500 g ai/ha) | Foxtail, Giant plant response rating [11, 17] | Foxtail, Giant plant response rating [11, 18] | Plant response rating, Foxtail, Giant ([11]; Preemergence, 500 g ai/ha) | Plant response rating, Morningglory ([13]; Preemergence, 500 g ai/ha) | Plant response rating, Sedge, Umbrella [14, 28] | Pigweed plant response rating [15, 25] | Surinam Grass plant response rating [16, 19] | Surinam Grass plant response rating [16, 20] | Surinam Grass plant response rating [16, 25]
45: Plant response rating, Rice [6, 28] | Plant response rating, Sunflower ([8]; Preemergence)
50: Plant response rating, Wheat [5, 24] | Sunflower plant response rating [8, 19] | Plant response rating, Lambsquarters ([10]; 125 g ai/ha) | Plant response rating, Lambsquarters ([10]; 250 g ai/ha)
85: Pigweed plant response rating [15, 19] | Plant response rating, Pigweed [15, 24]
25: Plant response rating, Wheat [5, 22] | Plant response rating, Surinam Grass [16, 23]
0: Plant response rating (0 to 100), Crabgrass, Large ([2]; Postemergence, 31 g ai/ha) | Plant response rating, Crabgrass, Large [2, 21] | Plant response rating, Crabgrass, Large [2, 22] | Plant response rating (0 to 100), Bermudagrass ([4]; Postemergence, 31 g ai/ha) | Plant response rating, Bermudagrass [4, 21] | Plant response rating (0 to 100), Wheat ([5]; Postemergence, 31 g ai/ha) | Plant response rating (0 to 100), Wheat ([5]; Postemergence, 62 g ai/ha) | Plant response rating, Rice [6, 27] | Plant response rating (0 to 100), Goosegrass ([7]; Postemergence, 31 g ai/ha) | Plant response rating, Goosegrass [7, 21] | Plant response rating, Goosegrass [7, 22] | Plant response rating (0 to 100), Lambsquarters ([10]; 31 g ai/ha) | Plant response rating, Lambsquarters ([10]; 62 g ai/ha) | Plant response rating (0 to 100), Pigweed ([15]; Postemergence, 31 g ai/ha) | Plant response rating (0 to 100), Pigweed ([15]; Postemergence, 62 g ai/ha) | Plant response rating, Pigweed [15, 22] | Plant response rating (0 to 100), Surinam Grass ([16]; Postemergence, 31 g ai/ha) | Plant response rating (0 to 100), Surinam Grass ([16]; Postemergence, 62 g ai/ha) | Plant response rating, Surinam Grass [16, 22]
60: Plant response rating, Crabgrass, Large [2, 23] | Plant response rating, Crabgrass, Large [2, 24] | Plant response rating, Wheat ([9]; Postemergence, 125 g ai/ha) | Plant response rating, Morningglory ([13]; Postemergence, 125 g ai/ha) | Morningglory plant response rating [13, 18] | Plant response rating, Sedge, Umbrella [14, 27]
30: Plant response rating, Wheat [5, 23]
90: Plant response rating, Barnyardgrass ([1]; Postemergence, 125 g ai/ha) | Barnyardgrass plant response rating [1, 17] | Pigweed plant response rating [3, 17] | Plant response rating, Bermudagrass [4, 23] | Plant response rating, Foxtail, Giant ([11]; Postemergence, 125 g ai/ha) | Morningglory plant response rating [13, 17]
70: Plant response rating, Bermudagrass [4, 22] | Plant response rating, Goosegrass [7, 23] | Wheat plant response rating [9, 17] | Plant response rating, Corn ([12]; Postemergence, 125 g ai/ha)
40: Corn plant response rating [12, 18]

CCn1nc(C(F)(F)F)c(CS(=O)(=O)c2cccc[n+]2[O-])c1OCC(F)(F)F [Compound 63]
35: Plant response rating, Rice [6, 28]
100: Plant response rating, Barnyardgrass ([1]; Preemergence, 500 g ai/ha) | Crabgrass, Large plant response rating [2, 19] | Crabgrass, Large plant response rating [2, 20] | Plant response rating, Crabgrass, Large [2, 24] | Crabgrass, Large plant response rating [2, 25] | Plant response rating, Pigweed ([3]; Preemergence, 500 g ai/ha) | Bermudagrass plant response rating [4, 26] | Bermudagrass plant response rating [4, 20] | Plant response rating, Bermudagrass [4, 24] | Bermudagrass plant response rating [4, 25] | Goosegrass plant response rating [7, 19] | Goosegrass plant response rating [7, 20] | Plant response rating, Goosegrass [7, 24] | Goosegrass plant response rating [7, 25] | Foxtail, Giant plant response rating [11, 18] | Plant response rating, Foxtail, Giant ([11]; Preemergence, 500 g ai/ha) | Pigweed plant response rating [15, 19] | Pigweed plant response rating [15, 20] | Pigweed plant response rating [15, 25] | Surinam Grass plant response rating [16, 19] | Surinam Grass plant response rating [16, 20] | Plant response rating, Surinam Grass [16, 24] | Surinam Grass plant response rating [16, 25]
60: Wheat plant response rating [5, 20] | Sunflower plant response rating [8, 19] | Wheat plant response rating [9, 17] | Corn plant response rating [12, 17] | Morningglory plant response rating [13, 17]
20: Wheat plant response rating [5, 19] | Wheat plant response rating [9, 18] | Morningglory plant response rating [13, 18]
90: Plant response rating, Barnyardgrass ([1]; Postemergence, 125 g ai/ha) | Barnyardgrass plant response rating [1, 17] | Barnyardgrass plant response rating [1, 18] | Foxtail, Giant plant response rating [11, 17]
30: Plant response rating, Rice [6, 27] | Plant response rating, Corn ([12]; Postemergence, 125 g ai/ha) | Plant response rating, Morningglory ([13]; Postemergence, 125 g ai/ha)
10: Plant response rating, Sunflower ([8]; Preemergence)
50: Plant response rating, Pigweed ([3]; Postemergence, 125 g ai/ha) | Plant response rating, Wheat ([9]; Postemergence, 125 g ai/ha) | Plant response rating, Corn ([12]; Preemergence, 500 g ai/ha) | Plant response rating, Pigweed [15, 24]
0: Plant response rating, Wheat [5, 24] | Corn plant response rating [12, 18] | Plant response rating, Sedge, Umbrella [14, 27]
85: Wheat plant response rating [5, 25] | Sunflower plant response rating [8, 25] | Plant response rating, Sedge, Umbrella [14, 28]
80: Pigweed plant response rating [3, 17] | Sunflower plant response rating [8, 20] | Plant response rating, Wheat ([9]; Preemergence, 500 g ai/ha) | Plant response rating, Foxtail, Giant ([11]; Postemergence, 125 g ai/ha)
70: Pigweed plant response rating [3, 18] | Plant response rating, Morningglory ([13]; Preemergence, 500 g ai/ha)
